Reference: EP4740948A1 (Dong Wha Pharm. Co., Ltd., priority 2023, dated 2025)

Legend:
EZH1 = EZH1 (Homo sapiens, UniProt Q92800); experiment: AlphaLISA enzyme activity inhibition, EZH1; assay type: biochemical; settings: for inhibition at 0.005 µM: 5nM test substance; for inhibition at 0.01 µM: 10nM test substance
How it was run: (§1)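 EZH1 or EZH2 was mixed with compound at 5 nM or 10 nM final in 20 mM Tris pH 8.0, 0.1% BSA, 0.5 mM DTT, then histone H3 peptide and SAM were added. After 2 h reaction, AlphaLISA acceptor and donor beads detected methylation; inhibition rate was calculated against DMSO control.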

EZH2 = EZH2 (Homo sapiens, UniProt Q15910); experiment: AlphaLISA enzyme activity inhibition, EZH2; assay type: biochemical; settings: for inhibition at 0.005 µM: 5nM test substance; for inhibition at 0.01 µM: 10nM test substance
How it was run: as §1

Lovo cells = experiment: Cancer cell proliferation inhibition (Cell Counting Kit-8), colorectal cancer cell line; assay type: cell-based; settings: 1000 nM, cultured seven to 11 days; for inhibition at 1 µM: Homo sapiens, LoVo, 264 h, read-out: % inhibition rate LoVo; for % inhibition rate LoVo: 1 µM
How it was run: (§2)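 Cells seeded at 100-1,000/well in medium with 10% FBS and treated with 1000 nM test substance for 7-11 days. Viability measured with Cell Counting Kit-8; % inhibition = {1−(test/control)} × 100.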

G401 cells = experiment: Cancer cell proliferation inhibition (Cell Counting Kit-8), rhabdoid tumor cell line; assay type: cell-based; settings: 1000 nM, cultured seven to 11 days; for % inhibition rate G401: 1 µM
How it was run: (§3)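 Cells grown in RPMI1640, McCoy's 5a, L-15 or DMEM with 10% FBS, seeded at 100 to 1,000 cells/well and treated with test substance at 1000 nM for 7 to 11 days. Viability read by CCK-8; % inhibition = {1−(test/control)} × 100.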

MKN-45 cells = experiment: Cancer cell proliferation inhibition (Cell Counting Kit-8), gastric cancer cell line; assay type: cell-based; settings: Homo sapiens, MKN-45, 264 h, 1000 nM, cultured seven to 11 days; read-out: % inhibition rate MKN -45
How it was run: as §3

SW-13 cells = experiment: Cancer cell proliferation inhibition (Cell Counting Kit-8), adrenal cancer cell line; assay type: cell-based; settings: Homo sapiens, SW13, 264 h, 1000 nM, cultured seven to 11 days; read-out: % inhibition rate SW-13
How it was run: as §2

MIA-PaCa-2 cells = experiment: Cancer cell proliferation inhibition (Cell Counting Kit-8), pancreatic cancer cell line; assay type: cell-based; settings: Homo sapiens, MIA PaCa-2, 264 h, 1000 nM, cultured seven to 11 days; read-out: % inhibition rate MIA-Paca2
How it was run: as §2

NCI-H1299 cells = experiment: Cancer cell proliferation inhibition (Cell Counting Kit-8), lung cancer cell line; assay type: cell-based; settings: Homo sapiens, NCI-H1299, 264 h, 1000 nM, cultured seven to 11 days; read-out: % inhibition rate NCI-H129 9
How it was run: as §2

Sequence of EZH2 (Q15910 whole entry, species assumed): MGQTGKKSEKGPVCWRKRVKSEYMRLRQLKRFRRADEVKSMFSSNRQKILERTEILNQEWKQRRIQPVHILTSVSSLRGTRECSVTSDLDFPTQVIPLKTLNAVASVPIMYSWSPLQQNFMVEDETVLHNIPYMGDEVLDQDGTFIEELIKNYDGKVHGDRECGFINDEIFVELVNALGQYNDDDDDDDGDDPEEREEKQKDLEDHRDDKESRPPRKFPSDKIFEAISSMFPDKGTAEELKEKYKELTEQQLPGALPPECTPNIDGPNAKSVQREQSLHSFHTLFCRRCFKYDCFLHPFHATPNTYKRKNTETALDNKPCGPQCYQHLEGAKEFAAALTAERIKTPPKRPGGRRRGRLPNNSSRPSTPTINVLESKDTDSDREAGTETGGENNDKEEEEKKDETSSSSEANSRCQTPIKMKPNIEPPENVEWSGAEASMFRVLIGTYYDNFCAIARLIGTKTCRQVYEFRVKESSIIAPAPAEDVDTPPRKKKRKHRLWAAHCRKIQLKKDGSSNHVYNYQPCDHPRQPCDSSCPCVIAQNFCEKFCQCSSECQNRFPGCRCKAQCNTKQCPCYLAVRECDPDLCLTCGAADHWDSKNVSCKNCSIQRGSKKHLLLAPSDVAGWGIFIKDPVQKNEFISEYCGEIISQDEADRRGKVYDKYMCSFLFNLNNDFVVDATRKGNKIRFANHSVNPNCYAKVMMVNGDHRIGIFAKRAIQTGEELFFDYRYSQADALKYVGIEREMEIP
Sequence of EZH2 (O75530 whole entry partner, species assumed): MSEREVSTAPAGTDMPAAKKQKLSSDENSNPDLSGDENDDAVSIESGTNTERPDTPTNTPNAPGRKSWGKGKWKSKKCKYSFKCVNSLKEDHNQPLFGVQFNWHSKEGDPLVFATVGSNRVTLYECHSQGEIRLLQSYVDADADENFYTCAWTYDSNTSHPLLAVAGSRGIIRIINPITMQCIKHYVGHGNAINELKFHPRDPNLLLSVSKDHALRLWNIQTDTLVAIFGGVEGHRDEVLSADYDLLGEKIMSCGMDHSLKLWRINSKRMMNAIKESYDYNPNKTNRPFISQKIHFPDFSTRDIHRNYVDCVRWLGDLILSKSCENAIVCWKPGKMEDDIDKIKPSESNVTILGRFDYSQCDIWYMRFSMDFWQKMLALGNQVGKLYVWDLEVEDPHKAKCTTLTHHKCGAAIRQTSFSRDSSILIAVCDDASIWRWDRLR
Sequence of EZH2 (Q15022 whole entry partner, species assumed): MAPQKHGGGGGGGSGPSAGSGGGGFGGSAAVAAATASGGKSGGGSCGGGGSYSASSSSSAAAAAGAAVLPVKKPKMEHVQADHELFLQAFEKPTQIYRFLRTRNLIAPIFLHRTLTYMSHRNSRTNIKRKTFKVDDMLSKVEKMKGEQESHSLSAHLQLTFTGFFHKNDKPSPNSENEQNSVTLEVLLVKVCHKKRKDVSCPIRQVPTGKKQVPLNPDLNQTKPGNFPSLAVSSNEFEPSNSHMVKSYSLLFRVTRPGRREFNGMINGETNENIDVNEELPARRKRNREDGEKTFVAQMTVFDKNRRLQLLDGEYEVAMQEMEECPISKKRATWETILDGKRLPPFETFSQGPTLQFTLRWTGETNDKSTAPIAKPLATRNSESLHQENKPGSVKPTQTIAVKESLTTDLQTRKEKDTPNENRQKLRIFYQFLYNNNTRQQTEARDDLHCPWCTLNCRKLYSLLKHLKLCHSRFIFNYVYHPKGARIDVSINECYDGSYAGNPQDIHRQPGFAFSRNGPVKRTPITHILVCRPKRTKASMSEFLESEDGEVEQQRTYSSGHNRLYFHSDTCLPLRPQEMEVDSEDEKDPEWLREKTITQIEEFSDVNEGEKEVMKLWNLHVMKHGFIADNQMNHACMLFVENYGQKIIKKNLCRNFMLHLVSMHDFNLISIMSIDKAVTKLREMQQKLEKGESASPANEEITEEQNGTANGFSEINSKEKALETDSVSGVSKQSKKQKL
Sequence of EZH1 (Q92800 whole entry, species assumed): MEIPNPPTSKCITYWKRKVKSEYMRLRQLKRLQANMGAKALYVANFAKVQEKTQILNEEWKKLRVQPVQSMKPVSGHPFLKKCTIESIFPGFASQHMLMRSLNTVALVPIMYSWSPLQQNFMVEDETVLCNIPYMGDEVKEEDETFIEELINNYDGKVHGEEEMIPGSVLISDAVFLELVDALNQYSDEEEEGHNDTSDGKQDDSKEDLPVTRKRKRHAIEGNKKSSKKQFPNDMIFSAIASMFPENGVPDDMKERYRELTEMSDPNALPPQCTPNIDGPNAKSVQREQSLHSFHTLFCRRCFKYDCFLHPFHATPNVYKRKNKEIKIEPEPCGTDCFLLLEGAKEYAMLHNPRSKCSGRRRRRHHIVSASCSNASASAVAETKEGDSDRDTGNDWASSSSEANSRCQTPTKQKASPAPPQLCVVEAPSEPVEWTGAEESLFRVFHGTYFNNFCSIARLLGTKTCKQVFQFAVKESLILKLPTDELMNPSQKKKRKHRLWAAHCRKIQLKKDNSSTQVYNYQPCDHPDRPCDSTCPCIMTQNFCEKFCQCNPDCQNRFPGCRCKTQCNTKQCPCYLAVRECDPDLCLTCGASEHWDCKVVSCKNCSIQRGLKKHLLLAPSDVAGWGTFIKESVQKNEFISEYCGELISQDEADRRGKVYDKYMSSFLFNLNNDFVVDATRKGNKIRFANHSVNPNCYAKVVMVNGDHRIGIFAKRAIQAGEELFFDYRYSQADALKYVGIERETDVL
Sequence of EZH1 (O75530 whole entry partner, species assumed): as the sequence (O75530 whole entry partner, species assumed) above
Sequence of EZH1 (Q15022 whole entry partner, species assumed): as the sequence (Q15022 whole entry partner, species assumed) above

| inhibition at 0.005 µM (EZH1) [%] | inhibition at 0.01 µM (EZH1) [%] | inhibition at 0.005 µM (EZH2) [%] | inhibition at 0.01 µM (EZH2) [%] | SMILES | inhibition at 1 µM (Lovo cells) [%] | % inhibition rate G401 (G401 cells) | inhibition at 1 µM (MKN-45 cells) [%] | inhibition at 1 µM (SW-13 cells) [%] | inhibition at 1 µM (MIA-PaCa-2 cells) [%] | inhibition at 1 µM (NCI-H1299 cells) [%] | % inhibition rate LoVo (Lovo cells) | inhibition at 1 µM (G401 cells; Homo sapiens, G-401, 264 h, read-out: % inhibition rate G401) [%] |
| --- | --- | --- | --- | --- | --- | --- | --- | --- | --- | --- | --- | --- |
| 68.1 | 86.7 | 94.5 | 99.6 | CSc1cc(C)[nH]c(=O)c1CNC(=O)c1cc(-c2ccc(N3C[C@@H](C)O[C@@H](C)C3)nc2)c2c(c1C)OC(C)(C1CCN(CC(F)F)CC1)O2 (single isomer, unassigned) [Compound 47] | ≥ 70 | +++ (+++: ≥70%) | 30 to 70 | 30 to 70 | ≤ 30 | 30 to 70 | – | – |
| 78.8 | 92.4 | 99.2 | 99.5 | CCN1CCC(C2(C)Oc3c(-c4ccc(N5C[C@@H](C)O[C@@H](C)C5)nc4)cc(C(=O)NCc4c(SC)cc(C)[nH]c4=O)c(C)c3O2)CC1 (single isomer, unassigned) [Compound 49] | – | – | ≤ 30 | 30 to 70 | ≤ 30 | 30 to 70 | +++ (+++: ≥70%) | 30 to 70 |
| 80.2 | 93 | 99.3 | 99.5 | CSc1cc(C)[nH]c(=O)c1CNC(=O)c1cc(-c2ccc(N3C[C@@H](C)O[C@@H](C)C3)nc2)c2c(c1C)OC(C)(C1CCN(C(C)C)CC1)O2 (single isomer, unassigned) [Compound 51] | – | +++ (+++: ≥70%) | ≤ 30 | 30 to 70 | ≤ 30 | 30 to 70 | +++ (+++: ≥70%) | – |
| 78.3 | 91.6 | 98.5 | 99.6 | CSc1cc(C)[nH]c(=O)c1CNC(=O)c1cc(-c2ccc(N3C[C@@H](C)O[C@@H](C)C3)nc2)c2c(c1C)OC(C)(C1CCN(C3CCCCC3)CC1)O2 (single isomer, unassigned) [Compound 53] | – | +++ (+++: ≥70%) | ≤ 30 | 30 to 70 | ≤ 30 | 30 to 70 | +++ (+++: ≥70%) | – |
| 31.6 | 52.2 | 58.2 | 93.3 | CSc1cc(C)[nH]c(=O)c1CNC(=O)c1cc(-c2ccc(N3C[C@@H](C)O[C@@H](C)C3)nc2)c2c(c1C)OC(C)(C1CCN(CCc3ccccc3)CC1)O2 (single isomer, unassigned) [Compound 55] | ≥ 70 | +++ (+++: ≥70%) | 30 to 70 | 30 to 70 | ≤ 30 | 30 to 70 | – | – |
| 58.9 | 76.2 | 96 | 99.4 | CSc1cc(C)[nH]c(=O)c1CNC(=O)c1cc(-c2ccc(N3C[C@@H](C)O[C@@H](C)C3)nc2)c2c(c1C)OC(C)(C1CCN(CCCC(F)(F)F)CC1)O2 (single isomer, unassigned) [Compound 57] | – | +++ (+++: ≥70%) | 30 to 70 | 30 to 70 | 30 to 70 | 30 to 70 | +++ (+++: ≥70%) | – |
| 42.2 | 5.7 | 98.5 | 99.5 | CSc1cc(C)[nH]c(=O)c1CNC(=O)c1cc(-c2ccc(N3C[C@@H](C)O[C@@H](C)C3)nc2)c2c(c1C)OC(C)(C1CCN(C(=O)C(F)(F)F)CC1)O2 (single isomer, unassigned) [Compound 59] | ≥ 70 | +++ (+++: ≥70%) | 30 to 70 | 30 to 70 | ≤ 30 | 30 to 70 | – | – |
| 66.9 | 81.8 | 93.6 | 99.4 | CSc1cc(C)[nH]c(=O)c1CNC(=O)c1cc(-c2ccc(N3CCOCC3)nc2)c2c(c1C)OC(C)(C1CCN(CC(F)(F)F)CC1)O2 (single isomer, unassigned) [Compound 62, 2,4-dimethyl-N-((6-methyl-4-(methylthio)-2-oxo-1,2-dihydropyridin-3-yl)methyl)-7-(6-morpholinopyridin-3-yl)-2-(1-(2,2,2-trifluoro)piperidin-4-yl)benzo[d][1,3]dioxole-5-carboxamide] | – | +++ (+++: ≥70%) | 30 to 70 | 30 to 70 | ≤ 30 | 30 to 70 | +++ (+++: ≥70%) | – |
| 82.5 | 90.5 | 99.2 | 99.6 | CSc1cc(C)[nH]c(=O)c1CNC(=O)c1cc(-c2ccc(N3CCOCC3)nc2)c2c(c1C)OC(C)(C1CCN(CC(F)F)CC1)O2 (single isomer, unassigned) [Compound 64, 2-(1-(2,2-difluoroethyl)piperidin-4-yl)-2,4-dimethyl-N-((6-methyl-4-(methylthio)-2-oxo-1,2-dihydropyridin-3-yl)methyl)-7-(6-morpholinopyridin-3-yl)benzo[d][1,3]dioxole-5-carboxamide] | – | +++ (+++: ≥70%) | 30 to 70 | 30 to 70 | ≤ 30 | ≤ 30 | +++ (+++: ≥70%) | – |
| 81.3 | 90.9 | 99.3 | 99.6 | CCN1CCC(C2(C)Oc3c(-c4ccc(N5CCOCC5)nc4)cc(C(=O)NCc4c(SC)cc(C)[nH]c4=O)c(C)c3O2)CC1 (single isomer, unassigned) [Compound 66, 2-(1-ethylpiperidin-4-yl)-2,4-dimethyl-N-((6-methyl-4-(methylthio)-2-oxo-1,2-dihydropyridin-3-yl)methyl)-7-(6-morpholinopyridin-3-yl)benzo[d][1,3]dioxole-5-carboxamide] | 30 to 70 | +++ (+++: ≥70%) | 30 to 70 | ≤ 30 | ≤ 30 | ≤ 30 | – | – |
| 71.9 | 87.9 | 98.2 | 99.6 | CSc1cc(C)[nH]c(=O)c1CNC(=O)c1cc(-c2cnc(N3CCOCC3)nc2)c2c(c1C)OC(C)(C1CCN(CC(F)(F)F)CC1)O2 (single isomer, unassigned) [Compound 69, 2,4-dimethyl-N-((6-methyl-4-(methylthio)-2-oxo-1,2-dihydropyridin-3-yl)methyl)-7-(2-morpholinopyrimidine-5-yl)-2-(1-(2,2,2-trifluoro)piperidin-4-yl)benzo [d][1,3]dioxole-5-carboxamide] | ≥ 70 | +++ (+++: ≥70%) | 30 to 70 | 30 to 70 | ≤ 30 | ≤ 30 | – | – |
